Reference: BindingDB's records for patent US20240182487 (Blossomhill Therapeutics, 2024)

Assays:
Experiment in all cases: Biochemical Assay
[1] = molecular target: Epidermal growth factor receptor [L858R,T790M,C797S] (Homo sapiens, UniProt P00533, C797S/L858R/T790M)
Method: (§1) Biochemical Assays for Inhibition of Wild-Type and Mutant EGFRs.The inhibitory activities against EGFR WT, EGFR Δ752-759 mutant, EGFR Δ746-750/T790M mutant, EGFR Δ746-750/C797S mutant, EGFR Δ746-750/T790M/C797S mutant. […] Briefly, specific kinase/substrate pairs along with required cofactors were prepared in reaction buffer; 20 mM Hepes pH 7.5, 10 mM MgCl2, 1 mM EGTA, 0.02% Brij35, 0.02 mg/ml BSA, 0.1 mM Na3VO4, 2 mM DTT, 1% DMSO. Compounds were delivered into the reaction, followed 20 minutes later by addition of a mixture of ATP (Sigma, St. Louis MO) and 33P ATP (Perkin Elmer, Waltham MA) to a final concentration of 10 μM. Reactions were carried out at room temperature for 120 min, followed by spotting of the reactions onto P81 ion exchange filter paper (Whatman Inc., Piscataway, NJ). Unbound phosphate was removed by extensive washing of filters in 0.75% phosphoric acid.

[2] = molecular target: Epidermal growth factor receptor [T790M,L858R] (Homo sapiens, UniProt P00533, L858R/T790M)
Sequence of Epidermal growth factor receptor [T790M,L858R] (P00533 25-1210 T790M/L858R limits assumed): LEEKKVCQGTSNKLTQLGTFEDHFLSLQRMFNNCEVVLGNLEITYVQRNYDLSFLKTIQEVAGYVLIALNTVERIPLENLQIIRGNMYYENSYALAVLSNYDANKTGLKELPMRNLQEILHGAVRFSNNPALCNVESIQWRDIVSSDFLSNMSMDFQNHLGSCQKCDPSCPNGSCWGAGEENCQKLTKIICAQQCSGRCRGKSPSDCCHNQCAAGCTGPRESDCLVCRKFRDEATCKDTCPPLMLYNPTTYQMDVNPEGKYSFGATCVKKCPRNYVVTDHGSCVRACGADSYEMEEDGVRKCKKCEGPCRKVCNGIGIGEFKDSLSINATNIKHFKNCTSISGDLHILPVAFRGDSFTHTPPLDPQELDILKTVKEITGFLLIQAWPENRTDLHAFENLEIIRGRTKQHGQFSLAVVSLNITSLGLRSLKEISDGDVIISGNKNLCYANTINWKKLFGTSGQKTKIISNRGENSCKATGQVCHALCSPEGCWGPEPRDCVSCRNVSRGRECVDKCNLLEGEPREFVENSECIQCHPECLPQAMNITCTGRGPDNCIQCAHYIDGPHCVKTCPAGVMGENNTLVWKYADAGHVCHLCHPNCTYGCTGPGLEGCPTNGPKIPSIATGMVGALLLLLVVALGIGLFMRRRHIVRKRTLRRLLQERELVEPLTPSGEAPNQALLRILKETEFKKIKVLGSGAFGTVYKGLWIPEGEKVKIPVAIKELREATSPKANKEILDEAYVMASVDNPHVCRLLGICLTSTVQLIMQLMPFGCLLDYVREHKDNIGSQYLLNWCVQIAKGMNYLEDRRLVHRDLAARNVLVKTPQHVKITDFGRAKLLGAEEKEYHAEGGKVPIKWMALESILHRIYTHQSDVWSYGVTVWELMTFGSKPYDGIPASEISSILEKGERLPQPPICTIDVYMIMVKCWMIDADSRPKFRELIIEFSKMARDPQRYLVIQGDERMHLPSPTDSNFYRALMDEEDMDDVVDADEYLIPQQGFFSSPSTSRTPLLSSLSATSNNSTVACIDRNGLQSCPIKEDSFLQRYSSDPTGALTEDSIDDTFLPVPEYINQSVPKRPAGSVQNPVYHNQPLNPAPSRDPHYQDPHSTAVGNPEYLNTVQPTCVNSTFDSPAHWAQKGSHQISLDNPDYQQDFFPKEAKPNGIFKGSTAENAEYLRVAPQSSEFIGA
Method: as §1

[3] = molecular target: Epidermal growth factor receptor [L858R,C797S] (Human, UniProt P00533, C797S/L858R)
Sequence of Epidermal growth factor receptor [L858R,C797S] (P00533 25-1210 C797S/L858R limits assumed): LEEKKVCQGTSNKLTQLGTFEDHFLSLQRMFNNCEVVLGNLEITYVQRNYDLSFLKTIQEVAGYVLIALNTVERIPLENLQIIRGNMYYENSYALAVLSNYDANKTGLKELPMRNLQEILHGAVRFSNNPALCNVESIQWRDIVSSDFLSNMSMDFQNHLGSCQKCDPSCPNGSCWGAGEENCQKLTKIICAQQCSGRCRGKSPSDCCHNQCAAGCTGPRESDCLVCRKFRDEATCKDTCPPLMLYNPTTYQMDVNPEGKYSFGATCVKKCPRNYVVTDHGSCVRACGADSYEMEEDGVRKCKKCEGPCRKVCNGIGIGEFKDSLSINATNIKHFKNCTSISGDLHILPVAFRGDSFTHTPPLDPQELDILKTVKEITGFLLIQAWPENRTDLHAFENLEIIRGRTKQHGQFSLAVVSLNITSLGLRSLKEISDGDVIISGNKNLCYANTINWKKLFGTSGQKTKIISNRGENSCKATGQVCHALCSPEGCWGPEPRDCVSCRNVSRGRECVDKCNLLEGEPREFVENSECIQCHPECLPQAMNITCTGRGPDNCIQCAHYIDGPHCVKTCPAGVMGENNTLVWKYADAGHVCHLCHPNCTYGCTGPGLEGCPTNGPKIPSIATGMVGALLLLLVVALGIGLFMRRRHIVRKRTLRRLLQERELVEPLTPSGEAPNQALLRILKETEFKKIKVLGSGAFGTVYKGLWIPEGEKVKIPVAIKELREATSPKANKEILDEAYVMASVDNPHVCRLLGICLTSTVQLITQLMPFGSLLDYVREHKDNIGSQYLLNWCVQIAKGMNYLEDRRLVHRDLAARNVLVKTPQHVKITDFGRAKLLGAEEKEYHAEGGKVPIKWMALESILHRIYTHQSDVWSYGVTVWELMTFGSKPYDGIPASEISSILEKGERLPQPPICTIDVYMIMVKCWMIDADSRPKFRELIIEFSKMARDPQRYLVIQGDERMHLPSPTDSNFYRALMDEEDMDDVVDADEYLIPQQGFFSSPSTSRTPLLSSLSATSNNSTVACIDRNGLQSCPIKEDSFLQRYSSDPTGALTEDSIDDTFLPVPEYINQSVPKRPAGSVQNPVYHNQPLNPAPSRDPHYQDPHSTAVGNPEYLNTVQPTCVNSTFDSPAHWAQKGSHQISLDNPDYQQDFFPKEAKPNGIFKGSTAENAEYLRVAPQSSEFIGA
Method: as §1

[4] = molecular target: Epidermal growth factor receptor [L858R] (Homo sapiens, UniProt P00533, L858R)
Method: as §1

[5] = molecular target: Epidermal growth factor receptor (Homo sapiens, UniProt P00533)
Sequence of Epidermal growth factor receptor (P00533 whole entry): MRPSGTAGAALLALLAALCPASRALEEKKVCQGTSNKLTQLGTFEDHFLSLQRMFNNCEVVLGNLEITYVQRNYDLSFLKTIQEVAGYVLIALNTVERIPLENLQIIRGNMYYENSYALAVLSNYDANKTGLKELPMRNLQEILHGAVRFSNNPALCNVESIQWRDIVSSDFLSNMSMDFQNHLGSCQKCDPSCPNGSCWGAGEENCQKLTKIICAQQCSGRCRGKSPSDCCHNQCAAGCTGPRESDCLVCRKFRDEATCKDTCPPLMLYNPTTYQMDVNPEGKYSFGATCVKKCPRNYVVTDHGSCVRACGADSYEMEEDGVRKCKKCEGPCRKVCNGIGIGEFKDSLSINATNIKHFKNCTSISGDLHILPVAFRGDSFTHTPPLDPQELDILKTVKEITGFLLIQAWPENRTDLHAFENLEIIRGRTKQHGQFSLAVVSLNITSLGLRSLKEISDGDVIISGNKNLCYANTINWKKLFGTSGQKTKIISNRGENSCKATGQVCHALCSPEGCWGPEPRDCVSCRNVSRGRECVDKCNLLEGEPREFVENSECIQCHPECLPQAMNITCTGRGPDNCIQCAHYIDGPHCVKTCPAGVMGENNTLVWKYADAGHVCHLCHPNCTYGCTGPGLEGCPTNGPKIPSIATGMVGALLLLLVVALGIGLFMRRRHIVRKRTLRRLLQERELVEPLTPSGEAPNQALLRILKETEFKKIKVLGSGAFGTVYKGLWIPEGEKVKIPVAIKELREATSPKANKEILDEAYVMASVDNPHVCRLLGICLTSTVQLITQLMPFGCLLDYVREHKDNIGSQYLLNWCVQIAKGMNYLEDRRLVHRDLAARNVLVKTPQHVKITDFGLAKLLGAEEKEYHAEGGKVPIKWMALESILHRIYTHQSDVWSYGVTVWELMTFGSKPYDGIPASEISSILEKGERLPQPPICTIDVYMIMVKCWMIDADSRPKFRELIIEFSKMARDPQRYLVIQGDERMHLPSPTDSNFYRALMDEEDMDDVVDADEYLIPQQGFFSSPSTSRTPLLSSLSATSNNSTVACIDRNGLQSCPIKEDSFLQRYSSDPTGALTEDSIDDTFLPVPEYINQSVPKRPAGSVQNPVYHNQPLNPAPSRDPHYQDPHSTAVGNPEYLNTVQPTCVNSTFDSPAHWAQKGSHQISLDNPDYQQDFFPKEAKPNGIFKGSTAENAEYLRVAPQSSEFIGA
Method: as §1

Sequence of Epidermal growth factor receptor [L858R,T790M,C797S] (P00533 25-1210 T790M/C797S/L858R limits assumed): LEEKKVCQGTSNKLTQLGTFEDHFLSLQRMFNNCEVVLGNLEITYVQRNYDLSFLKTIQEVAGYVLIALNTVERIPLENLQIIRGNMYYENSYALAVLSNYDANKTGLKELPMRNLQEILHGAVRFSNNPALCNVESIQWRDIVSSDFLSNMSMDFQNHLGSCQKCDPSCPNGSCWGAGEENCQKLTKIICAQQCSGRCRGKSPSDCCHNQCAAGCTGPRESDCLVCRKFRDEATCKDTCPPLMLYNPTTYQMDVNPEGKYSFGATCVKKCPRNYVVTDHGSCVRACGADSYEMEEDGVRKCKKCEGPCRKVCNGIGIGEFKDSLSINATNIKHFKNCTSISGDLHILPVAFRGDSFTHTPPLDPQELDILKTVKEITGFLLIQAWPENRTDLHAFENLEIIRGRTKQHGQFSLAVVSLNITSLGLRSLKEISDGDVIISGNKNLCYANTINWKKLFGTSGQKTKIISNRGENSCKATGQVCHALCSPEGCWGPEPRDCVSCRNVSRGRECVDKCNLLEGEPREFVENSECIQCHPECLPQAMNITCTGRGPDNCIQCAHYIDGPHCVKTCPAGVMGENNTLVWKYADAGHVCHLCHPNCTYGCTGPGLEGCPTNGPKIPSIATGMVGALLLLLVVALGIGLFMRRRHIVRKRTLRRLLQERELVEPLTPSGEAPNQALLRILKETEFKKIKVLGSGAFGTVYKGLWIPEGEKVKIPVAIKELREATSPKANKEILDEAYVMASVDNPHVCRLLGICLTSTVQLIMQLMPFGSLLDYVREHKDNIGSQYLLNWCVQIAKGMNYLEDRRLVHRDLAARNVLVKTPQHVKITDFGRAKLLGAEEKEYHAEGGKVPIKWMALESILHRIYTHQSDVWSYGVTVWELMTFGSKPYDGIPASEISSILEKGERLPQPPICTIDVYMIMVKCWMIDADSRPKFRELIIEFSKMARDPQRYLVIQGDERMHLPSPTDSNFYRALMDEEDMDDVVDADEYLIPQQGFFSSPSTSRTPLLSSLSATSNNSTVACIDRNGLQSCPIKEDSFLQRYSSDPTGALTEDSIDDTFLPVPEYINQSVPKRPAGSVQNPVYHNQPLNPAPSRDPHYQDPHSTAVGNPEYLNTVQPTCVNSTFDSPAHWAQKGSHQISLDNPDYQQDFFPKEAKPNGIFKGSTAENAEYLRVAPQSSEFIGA

| Compound | IC50 [1] | IC50 [2] | IC50 [3] | IC50 [4] | IC50 [5] |
| --- | --- | --- | --- | --- | --- |
| Cn1ncc2c1COCCOc1ccccc1/C=C/c1n[nH]c3cnc-2nc13 [US20240182487, Compound 16] | 263 nM | 168 nM | 481 nM | 350 nM | 551 nM |
| CCc1c2c(nn1C)C(=O)N(C)CCOc1c[nH]c(=O)cc1-c1cc3c(n[nH]c3cn1)/C=C/2 [US20240182487, Compound 38] | 1130 nM |  |  |  |  |
| CCc1nn(C)c2c1/C=C/c1n[nH]c3cnc(cc13)-c1cc(F)ccc1OCCN(C)C2=O [US20240182487, Compound 62] | 32.4 nM | 36.3 nM | 104 nM | 136 nM | 306 nM |
| Cn1ncc2c1COCCOc1ccccc1/C=C/c1n[nH]c3cnc-2cc13 [US20240182487, Compound 63] | 8.8 nM | 5.8 nM | 61.9 nM | 50 nM | 98.4 nM |
| CCc1c2c(nn1C)C(=O)N(C)CCCOc1cnc(OC)cc1-c1cc3c(n[nH]c3cn1)/C=C/2 [US20240182487, Compound 64] |  |  |  | > 10000 nM |  |
| Cc1ccc2c(n1)/C=C/c1n[nH]c3cnc(nc13)-c1cnn(C)c1C(C)OCCO2 (configuration not stated) [US20240182487, Compound 65] | 91.2 nM | 23.4 nM |  | 140 nM | 438 nM |
| CCc1c2c(nn1C)C(=O)N(C)CCOc1cnc(OC)cc1-c1cc3c(n[nH]c3cn1)/C=C/2 [US20240182487, Compound 66] |  |  |  | > 10000 nM |  |
| COC(=O)c1ccc2c(c1)/C=C/c1n[nH]c3cnc(cc13)-c1cnn(C)c1COCCO2 [US20240182487, Compound 75] | 184 nM |  |  | 165 nM | 938 nM |
| CN1CCC(NC(=O)c2ccc3c(c2)OCCOCc2c(cnn2C)-c2cc4c(n[nH]c4cn2)/C=C/3)CC1 [US20240182487, Compound 85] | 31 nM |  |  | 40.7 nM | 140 nM |
| CN1CC[C@@H](NC(=O)c2ccc3c(c2)OCCOCc2c(cnn2C)-c2cc4c(n[nH]c4cn2)/C=C/3)C1 [US20240182487, Compound 87] | 17.2 nM |  |  | 16.3 nM | 80.1 nM |
| CCNC(=O)c1ccc2c(c1)/C=C/c1n[nH]c3cnc(cc13)-c1cnn(C)c1COCCO2 [US20240182487, Compound 89] |  |  |  | 32 nM | 158 nM |
| CN(C)CCNC(=O)c1ccc2c(c1)/C=C/c1n[nH]c3cnc(cc13)-c1cnn(C)c1COCCO2 [US20240182487, Compound 90] | 8.6 nM |  |  | 22.2 nM | 73.7 nM |
| CN(C)CCCNC(=O)c1ccc2c(c1)/C=C/c1n[nH]c3cnc(cc13)-c1cnn(C)c1COCCO2 [US20240182487, Compound 91] | 10.2 nM |  |  | 28.2 nM | 97.2 nM |
| CN1CCC(NC(=O)c2ccc3c(c2)/C=C/c2n[nH]c4cnc(cc24)-c2cnn(C)c2COCCO3)CC1 [US20240182487, Compound 93] | 4.2 nM |  |  | 7.2 nM | 55.8 nM |
| CN1CCC(CNC(=O)c2ccc3c(c2)/C=C/c2n[nH]c4cnc(cc24)-c2cnn(C)c2COCCO3)CC1 [US20240182487, Compound 94] | 9.9 nM |  |  | 9.2 nM | 101 nM |
| Cc1ccc2c(n1)/C=C/c1n[nH]c3cnc(cc13)-c1cnn(C)c1C(C)OCCO2 (configuration not stated) [US20240182487, Compound 95] | 35 nM |  |  | 74.9 nM | 91.6 nM |
| CN1CCN(C(=O)c2ccc3c(c2)/C=C/c2n[nH]c4cnc(cc24)-c2cnn(C)c2COCCO3)CC1 [US20240182487, Compound 96] | 343 nM |  |  | 470 nM | 586 nM |
| Cc1nc2cc3c(n[nH]c13)/C=C/c1cc(F)ccc1OCCCOc1c-2cnn1C [US20240182487, Compound 98] | 192 nM |  |  | 1110 nM | 1240 nM |
| CN1CCOCCN(c2ccc(F)c(Cl)c2)c2cc3c(n[nH]c3cn2)/C=C/c2cn(C)nc2C1=O [US20240182487, Compound 99] |  | > 10000 nM | 50.2 nM | 25.5 nM | 33.5 nM |

The next lines start with the values.

| IC50 [1] | IC50 [2] | IC50 [3] | IC50 [4] | IC50 [5] | Compound |
| --- | --- | --- | --- | --- | --- |
| 112 nM |  |  | 1720 nM | 1000 nM | COC(=O)c1ccc2c(c1)OCCCOc1c(cnn1C)-c1cc3c(n[nH]c3cn1)/C=C/2 [US20240182487, Compound 67] |
| 16.6 nM |  |  |  | 159 nM | COC(=O)c1ccc2c(c1)/C=C/c1n[nH]c3cnc(cc13)-c1cnn(C)c1OCCCO2 [US20240182487, Compound 68] |
| 98.3 nM |  |  |  |  | COC(=O)c1ccc2c(c1)OCCOCc1c(cnn1C)-c1cc3c(n[nH]c3cn1)/C=C/2 [US20240182487, Compound 69] |
| 5.3 nM |  |  | 2.2 nM | 5.9 nM | CN(C)CCCNC(=O)c1ccc2c(c1)/C=C/c1n[nH]c3cnc(cc13)-c1cnn(C)c1OCCCO2 [US20240182487, Compound 70] |
| 64.7 nM |  |  | 23.7 nM | 48.7 nM | Cn1ncc2c1OCCCOc1ccc(C(=O)N3CCCC3)cc1/C=C/c1n[nH]c3cnc-2cc13 [US20240182487, Compound 72] |
| 220 nM |  |  | 39 nM | 88.6 nM | Cn1ncc2c1OCCCOc1cc(C(=O)O)ccc1/C=C/c1n[nH]c3cnc-2cc13 [US20240182487, Compound 73] |
| 8.3 nM |  |  | 2.8 nM | 5.7 nM | CN(C)CCNC(=O)c1ccc2c(c1)OCCCOc1c(cnn1C)-c1cc3c(n[nH]c3cn1)/C=C/2 [US20240182487, Compound 74] |
| 3.1 nM |  |  | 1.2 nM |  | CN1CCC(CNC(=O)c2ccc3c(c2)/C=C/c2n[nH]c4cnc(cc24)-c2cnn(C)c2OCCCO3)CC1 [US20240182487, Compound 76] |
| 172 nM |  |  | 57.9 nM |  | CC(C)NC(=O)c1ccc2c(c1)OCCCOc1c(cnn1C)-c1cc3c(n[nH]c3cn1)/C=C/2 [US20240182487, Compound 77] |
| 10.6 nM |  |  | 2.9 nM | 6.2 nM | CN1CCC(NC(=O)c2ccc3c(c2)OCCCOc2c(cnn2C)-c2cc4c(n[nH]c4cn2)/C=C/3)CC1 [US20240182487, Compound 78] |
| 12 nM |  |  | 5.4 nM | 9.8 nM | CN1CC[C@@H](NC(=O)c2ccc3c(c2)OCCCOc2c(cnn2C)-c2cc4c(n[nH]c4cn2)/C=C/3)C1 [US20240182487, Compound 82] |
| 13.8 nM |  |  | 6 nM | 11.2 nM | CN1CC(NC(=O)c2ccc3c(c2)OCCCOc2c(cnn2C)-c2cc4c(n[nH]c4cn2)/C=C/3)C1 [US20240182487, Compound 83] |
| 160 nM |  |  | 433 nM | 884 nM | CCNC(=O)c1ccc2c(c1)OCCOCc1c(cnn1C)-c1cc3c(n[nH]c3cn1)/C=C/2 [US20240182487, Compound 84] |
| 8.8 nM |  |  | 4.9 nM | 24.1 nM | CNC(=O)c1ccc2c(c1)/C=C/c1n[nH]c3cnc(cc13)-c1cnn(C)c1OCCCO2 [US20240182487, Compound 86] |
| 10.3 nM |  |  | 4.1 nM | 19.3 nM | CN1CC[C@H](NC(=O)c2ccc3c(c2)OCCCOc2c(cnn2C)-c2cc4c(n[nH]c4cn2)/C=C/3)C1 [US20240182487, Compound 88] |
| 55.5 nM |  |  | 66.4 nM | 271 nM | Cn1ncc2c1COCCOc1ccc(C(=O)O)cc1/C=C/c1n[nH]c3cnc-2cc13 [US20240182487, Compound 92] |
| 3.4 nM |  |  | 4.5 nM | 3.1 nM | CN1CCC(NC(=O)c2ccc3c(c2)/C=C/c2n[nH]c4cnc(cc24)-c2cnn(C)c2OCCCO3)CC1 [US20240182487, Compound 97] |
| 27.5 nM |  |  | 13.9 nM | 176 nM | Cn1ncc2c1OCCCOc1ccc(F)cc1/C=C/c1n[nH]c3cnc-2cc13 [US20240182487, Compound 100] |
